# Counter-ions that a name gives are not always drawn.
# Target: T1, human a-thrombin (Homo sapiens, UniProt P00734)
# T1 construct: human a-thrombin
# Assay: In vitro assay for determining proteinase inhibition (thrombin Ki)
# Assay type: biochemical
# Settings: Table 2; 25° C., pH 7.4; read-out: Ki (thr)
# Procedure: In vitro assay for determining proteinase inhibition Assays of human a-thrombin and human trypsin were performed at 25° C. in 0.05M TRIS buffer pH 7.4, 0.15M NaCl, 0.1% PEG. Trypsin assays also contained 1 mM CaCl2. In assays wherein rates of hydrolysis of a p-nitroanilide (pna) substrate were determined, a Thermomax 96-well plate reader was used to measure (at 405 nm) the time dependent appearance of p-nitroaniline. […] Activity assays were performed by diluting a stock solution of substrate at least tenfold to a final concentration 0.5 Km into a solution containing enzyme or enzyme equilibrated with inhibitor. Times required to achieve equilibration between enzyme and inhibitor were determined in control experiments. Initial velocities of product formation in the absence (Vo) or presence of inhibitor (Vi) were measured. Assuming competitive inhibition, and that unity is negligible compared Km /[S], […] (where [S], [I], and e respectively represent the total concentrations, of substrate, inhibitor and enzyme), the equilibrium constant (Ki) for dissociation of the inhibitor from the enzyme can be obtained from the dependence of Vo /Vi on [I] shown in equation 1.
row,Molecule,Ki [nM]
1,COC(=O)C(Oc1ccc(CNc2ccncc2)cc1)c1ccccc1 (stereo not drawn),> 1000
2,"c1cc(NCc2ccc(OCc3ccc4c(c3)OCO4)cc2)ccn1 [4-[4-(3,4-methylenedioxybenzyloxy)benzylamino]pyridine]",> 1000
3,c1ccc(CNc2ccc(CNc3ccncc3)cc2)cc1,> 1000
4,c1cc(NCc2ccc(OCCCCC3CCCCC3)cc2)ccn1,> 1000
5,c1ccc(C(Oc2ccc(CNc3ccncc3)cc2)C2CCCCC2)cc1 (stereo not drawn),> 1000
6,NC(=O)C(Oc1ccc(CNc2ccncc2)cc1)c1ccccc1 (stereo not drawn),> 1000
7,"c1ccc(CC(Cc2ccccc2)Oc2ccc(CNc3ccncc3)cc2)cc1 [4-[4-(1,3-diphenyl-2-propoxy)benzylamino]pyridine]",> 1000
8,c1ccc(COc2ccc(CNc3ccncc3)cc2)cc1 [N-4-(4-benzyloxybenzyl)aminopyridine],> 1000
9,c1cc(NCc2ccc(OCCC3CCCCC3)cc2)ccn1 [4-[4-(2-cyclohexylethoxy)benzylamino]pyridine],> 1000
10,c1cc(NCc2ccc(NCC3CCCCC3)cc2)ccn1,> 1000
11,c1cc(NCc2ccc(OC(C3CCCCC3)C3CC3)cc2)ccn1 (stereo not drawn),100 to 1000
12,"c1ccc(C(Oc2ccc(CNc3ccncc3)cc2)c2ccccc2)cc1 [N-4-(1,1-diphenylmethoxy)benzylaminopyridine]",> 1000
13,CC(C)C(Oc1ccc(CNc2ccncc2)cc1)c1ccccc1 (stereo not drawn) [4-[4-(2-methyl-1-phenylpropoxy)benzylamino]pyridine],> 1000

# The remaining lines, values ahead:
row,Ki [nM],Molecule
1,> 1000,c1cc(NCc2ccc(OCC(C3CCCCC3)C3CCCCC3)cc2)ccn1
2,> 1000,c1ccc(CSc2ccc(CNc3ccncc3)cc2)cc1
3,> 1000,"c1ccc(C(COc2ccc(CNc3ccncc3)cc2)c2ccccc2)cc1 [4-[4-(2,2-diphenylethoxy)benzylamino]pyridine]"
4,> 1000,CCC(Oc1ccc(CNc2ccncc2)cc1)c1ccccc1 (stereo not drawn)
5,> 1000,CC(Oc1ccc(CNc2ccncc2)cc1)c1ccccc1 (stereo not drawn)
6,> 1000,c1cc(NCc2ccc(OC(C3CCCCC3)C3CCCCC3)cc2)ccn1 [4-[4-(dicyclohexylmethoxy)-benzylamino]pyridine]
7,> 1000,CC(C)C(Oc1ccc(CNc2ccncc2)cc1)c1ccc2c(c1)OCO2 (stereo not drawn)
8,> 1000,c1cc(NCc2ccc(OCC3CCCCC3)cc2)ccn1 [N-4-(cyclohexylmethoxy)benzylaminopyridine]

# Same assay, conditions: Table 3; 25° C., pH 7.4; read-out: Ki(th)
row,Molecule,Ki [nM]
1,CCCc1cc(CNc2ccncc2)ccc1OC(Cc1ccccc1)C1CC1 (stereo not drawn),1300
2,CCCc1cc(CNc2ccncc2)ccc1OCC12CC3CC(CC(C3)C1)C2,220
3,c1cc(NCc2ccc(OCC3CCCCC3)c(C3CC3)c2)ccn1,3200
4,CCCc1cc(CNc2ccncc2)ccc1OC(c1ccccc1)c1ccccc1,320
5,C=Cc1cc(CNc2ccncc2)ccc1OCC1CCCCC1,260
6,CCc1cc(CNc2ccncc2)ccc1OCC1CCCCC1 [4-{[3-ethyl-4-(cyclohexylmethyloxy)phenyl]methylamino}pyridine],640
7,Nc1cc(CNc2ccncc2)ccc1OCC1CCCCC1 [4-{[3-amino-4-(cyclohexylmethyloxy)phenyl]methylamino}pyridine dihydrochloride],2900
8,CCCc1cc(CNc2ccncc2)ccc1OC(c1ccccc1)C1CC1 (stereo not drawn),800
9,CCCc1cc(CNc2ccncc2)ccc1OCC1CCCCCC1,740
10,CC(C)Cc1cc(CNc2ccncc2)ccc1OCC1CCCCC1,1500
11,Oc1cc(OCC2CCCCC2)ccc1CNc1ccncc1,1600
12,CCCc1cc(CNc2ccncc2)c(Cc2ccccc2)cc1OCC1CCCCC1,> 900
13,CCCc1cc(CNc2ccncc2)cc(CO)c1OCC1CCCCC1,3800

# Second part, the molecule after the results:
row,Ki [nM],Molecule
1,3200,COc1cc(OCC2CCCCC2)ccc1CNc1ccncc1
2,1800,c1ccc(Cc2cc(OCC3CCCCC3)ccc2CNc2ccncc2)cc1 [4'-(4-cyclohexylmethyloxy-2-benzylphenylmethyl)-aminopyridine]
3,4400,OCCc1cc(CNc2ccncc2)ccc1OCC1CCCCC1
4,3200,CC(C)CCc1cc(CNc2ccncc2)ccc1OCC1CCCCC1 [drawing 160]
5,1800,c1ccc(COc2cc(OCC3CCCCC3)ccc2CNc2ccncc2)cc1 [4-(4-cyclohexylmethyloxy-2-benzyloxybenzyl)aminopyridine]
6,1800,CCCc1cc(CNc2ccncc2)ccc1OCc1ccc(OC)cc1
7,500,CCCc1cc(CNc2ccncc2)ccc1OC(Cc1ccccc1)C(C)C (stereo not drawn)
8,1800,CCCc1cc(CNc2ccncc2)ccc1OCc1ccccc1
9,6400,c1ccc(-c2cc(OCC3CCCCC3)ccc2CNc2ccncc2)cc1
10,500,CCCc1cc(CNc2ccncc2)ccc1OCC1CCCCC1 [4-{[3-propyl-4-(cyclohexylmethyloxy)phenyl]methylamino}pyridine]

# Same assay, conditions: Table 4; 25° C., pH 7.4; read-out: Ki (thr)
row,Molecule,Ki [nM]
1,OCc1cc(CNc2ccncc2)ccc1OCC1CCCCC1,> 10000
2,CCCc1cc(CNc2ccncc2)ccc1OCC1CC2C=CC1C2 (stereo not drawn),100 to 1000
3,CC(C)CCc1cc(CNc2ccncc2)ccc1OCC1CCCCC1 [drawing 174],1000 to 10000
4,CCCc1cc(CNc2ccncc2)ccc1OCCC(C)C [i-butyl],1000 to 10000
5,NCc1cc(CNc2ccncc2)ccc1OCC1CCCCC1,> 10000
6,CCCc1cc(CNc2ccncc2)cc(CN2CCCCC2)c1OCC1CCCCC1,1000 to 10000

# Second part, the molecule after the results:
row,Ki [nM],Molecule
1,1000 to 10000,CCCc1cc(CNc2ccncc2C)ccc1OCC1CCCCC1
2,> 10000,c1ccc(-c2cc(CNc3ccncc3)ccc2OCC2CCCCC2)cc1
3,> 10000,CC(C)(C)OCCc1cc(CNc2ccncc2)ccc1OCC1CCCCC1
4,> 10000,CNC(=O)c1cc(CNc2ccncc2)ccc1OCC1CCCCC1
5,> 10000,CCCc1cc(CN(CC)c2ccncc2)ccc1OCC1CCCCC1
6,1000 to 10000,CCCc1cc(CNc2ccncc2)ccc1OCc1cccc2ccccc12
7,1000 to 10000,CNCc1cc(CNc2ccncc2)ccc1OCC1CCCCC1

# Same assay, conditions: Table 5; 25° C., pH 7.4; read-out: Ki(thr)
row,Ki [nM],Molecule
1,1000 to 10000,N=C(N)N1CCN(S(=O)(=O)c2ccc(OCc3ccccc3)cc2)CC1 [N-((4-benzyloxy)phenylsulfonyl)-N'-aminomethyliminopiperazine]
2,100 to 1000,CCc1cc(S(=O)(=O)N2CCN(C(=N)N)CC2)ccc1OCC1CCCCC1 [N-((4-cyclohexylmethyloxy)-3-ethyl-phenylsulfonyl)-N'-aminomethyliminopiperazine]

# Same assay, conditions: Table 6; 25° C., pH 7.4; read-out: Ki(thr)
row,Molecule,Ki [nM]
1,Cc1cc(Cc2ccc(C(=N)N)cc2)ccc1OC(C(C)C)C1CCCCC1 (stereo not drawn),20
2,N=C(N)c1ccc(Cc2ccc(OCC3CCCCC3)cc2)cc1 [4-{[4-(Cyclohexylmethyloxy)phenyl]methyl}-benzamidine hydrochloride],170
3,N=C(N)c1ccc(Cc2ccc(OCc3ccccc3)cc2)cc1 [4-{[4-(Phenylmethyloxy)phenyl]methyl}benzamidine hydrochloride],390
4,CCc1cc(Cc2ccc(C(=N)N)cc2)ccc1OCC1CCCCC1,77

# Now from value to molecule:
row,Ki [nM],Molecule
1,102,Cc1cc(Cc2ccc(C(=N)N)cc2)ccc1OCC1CCCCC1
2,300,CCCc1cc(Cc2ccc(C(=N)N)cc2)ccc1OCC1CCCCC1
3,20,CCc1cc(Cc2ccc(C(=N)N)cc2)ccc1OC(C(C)C)C1CCCCC1 (stereo not drawn)
4,280,CCCc1cc(Cc2ccc(C(=N)N)cc2)ccc1OC(C(C)C)C1CCCCC1 (stereo not drawn)

# Same assay, conditions: Table 7; 25° C., pH 7.4; read-out: Ki(thr)
row,Ki [nM],Molecule
1,1000 to 10000,c1cc(NCc2ccc(CCC3CCCCC3)cc2)ccn1
2,1000 to 10000,c1ccc(OCc2ccc(CNc3ccncc3)cc2)cc1

# Same assay, conditions: Table I; 25° C., pH 7.4; read-out: Ki (thr)
row,Molecule,Ki [nM]
1,"Nc1cc[n+](Cc2ccc(OCC(c3ccccc3)c3ccccc3)cc2)cc1 [4-amino-1-[4-(2,2-diphenylethoxy)benzyl]pyridinium bromide]",100 to 1000
2,Nc1cc[n+](Cc2ccc(OCc3ccccc3)c(OCc3ccccc3)c2)cc1,> 1000
3,COc1cc(C[n+]2ccc(N)cc2)ccc1OCc1ccccc1,> 1000
4,Nc1cc[n+](Cc2ccc(OCc3ccccc3)nc2)cc1,> 1000
5,Nc1cc[n+](Cc2ccc(OCc3ccccc3)cc2)cc1,100 to 1000
6,Nc1cc[n+](Cc2ccc(OC(C3CCCCC3)C3CCCCC3)cc2)cc1 [4-amino-1-[4-(dicyclohexylmethoxy)benzyl]pyridinium bromide],100 to 1000

# The next lines start with the values.
row,Ki [nM],Molecule
1,> 1000,Nc1cc[n+](Cc2ccc(-c3ccccc3)cc2)cc1
2,100 to 1000,4-amino-1-(4-(1-phenyl-1-carbomethoxy)methoxybenzyl)pyridinium bromide
3,< 100,"Nc1cc[n+](Cc2ccc(OC(c3ccccc3)c3ccccc3)cc2)cc1 [4-amino-1-(4-(1,1-diphenylmethoxy)benzylpyridinium bromide]"
4,100 to 1000,"Nc1cc[n+](Cc2ccc(OC(CCc3ccccc3)c3ccccc3)cc2)cc1 (stereo not drawn) [4-amino-1-[4-(1,3-diphenyl-1-propoxy)benzyl]pyridinium bromide]"
5,> 1000,Nc1cc[n+](Cc2ccc(OCc3ccccc3)cn2)cc1
6,100 to 1000,"Nc1cc[n+](Cc2ccc(OCC(C3CCCCC3)C3CCCCC3)cc2)cc1 [4-amino-1-(4-(2,2-dicyclohexyl-1-ethoxy)benzyl)pyridinium bromide]"

# — patent US5872138A, “Thrombin inhibitors” (Merck & Co., Inc., priority 1997, dated 1999)
